Measured values taken from publication PMC12541554, “Production of the Antimicrobial Roseoflavin With Genetically Engineered Corynebacterium glutamicum” (Microbial Biotechnology, 2025).

Tests used:
[1] = target: T1, RibF^Cg (Corynebacterium glutamicum, UniProt Q8NP47); assay: fluorescent ADP detection kinase assay, crude extract; format: biochemical; conditions: ATP co-substrate; crude extract of overexpressing C. glutamicum; 10 min
T1 construct: gene Cgl1978; overexpressed from pVWEx1 in C. glutamicum wild type; crude extract
T1 sequence (Q8NP47 1-341): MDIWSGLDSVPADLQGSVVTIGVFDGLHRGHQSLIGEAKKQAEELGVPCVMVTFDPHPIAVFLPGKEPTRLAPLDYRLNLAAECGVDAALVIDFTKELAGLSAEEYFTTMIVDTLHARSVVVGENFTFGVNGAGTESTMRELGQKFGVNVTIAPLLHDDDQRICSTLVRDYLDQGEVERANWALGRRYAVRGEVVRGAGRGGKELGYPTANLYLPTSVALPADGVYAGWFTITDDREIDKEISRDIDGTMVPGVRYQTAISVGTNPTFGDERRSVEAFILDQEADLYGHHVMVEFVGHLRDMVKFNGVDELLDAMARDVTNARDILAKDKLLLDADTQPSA

[2] = target: T2, RibF^Sda (Streptomyces davaonensis, UniProt K4R340); assay: as above; format: biochemical; conditions: ATP co-substrate; crude extract of overexpressing C. glutamicum with native RibF background; 10 min
T2 construct: gene ribC1; overexpressed from pVWEx1 in C. glutamicum wild type; crude extract (host's native RibF also present)
T2 sequence (K4R340 1-319): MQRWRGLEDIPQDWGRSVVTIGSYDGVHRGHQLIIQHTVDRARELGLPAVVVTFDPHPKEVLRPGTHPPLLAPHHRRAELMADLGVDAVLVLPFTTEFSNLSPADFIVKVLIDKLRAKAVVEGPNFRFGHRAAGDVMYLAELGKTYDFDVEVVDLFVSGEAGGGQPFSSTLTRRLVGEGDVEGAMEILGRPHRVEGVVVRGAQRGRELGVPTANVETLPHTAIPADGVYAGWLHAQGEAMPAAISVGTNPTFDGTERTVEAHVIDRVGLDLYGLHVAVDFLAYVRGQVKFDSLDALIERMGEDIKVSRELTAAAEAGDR

Row | Compound | fluorescent ADP detection kinase assay, crude extract [1] | fluorescent ADP detection kinase assay, crude extract [2]
1 | Cc1cc2nc3c(=O)[nH]c(=O)nc-3n(C[C@H](O)[C@H](O)[C@H](O)CO)c2cc1C [riboflavin] | overexpression of both ribF genes resulted in kinase activity when RF or RoF was added | RibF^Sda also showed lower kinase activity in the presence of RF
2 | Cc1cc2nc3c(=O)[nH]c(=O)nc-3n(C[C@H](O)[C@H](O)[C@H](O)CO)c2cc1N(C)C [roseoflavin] | overexpression of both ribF genes resulted in kinase activity when RF or RoF was added | activity of RibF^Sda was significantly lower in the presence of RoF
